This is an account of results in patent publication US9546150B2, “Substituted quinazolin-4-ones for inhibiting ubiquitin specific protease 7” (HYBRIGENICS SA, priority 2011, dated 2017).

Assay [1] concerns the target USP7 (Homo sapiens, UniProt Q93009). The assay is described as follows: GST-Ub52-Flag HTRF deubiquitinating enzyme assay, USP7. It is filed as biochemical. The arrangement: Full-length wild-type human USP7 and its catalytic mutant; His tag (pFastBac-HT vector) (N); made in house; host or cells: Spodoptera frugiperda Sf9 (or High Five) insect cells, baculovirus. To be noted: GST-Ub52-Flag substrate, USP7 200 pM. On the procedure:
Bacmid DNA was prepared by an alkaline lysis procedure. The integrity of the bacmid minipreps and their orientation were checked by PCR, using generic and specific primers. Sf9 insect cells were cultured in InsectXpress medium (Cambrex) at 27° C. and transfected with the corresponding bacmid, using GeneShuttle 40 (Q-BIOgen). Viruses were recovered in the supernatant 72 h after transfection. Viruses were amplified by infecting insect cells (Sf9 or High Five cells; invitrogen) in 50 ml InsectXpress medium in a 150 cm^2 cell culture flask with 500 μl of the supernatant from transfected Sf9 cells. Following the second round of amplification, infected cells were recovered by rapid SDS lysis, boiled for 5 min at 100° C., sonicated briefly and centrifuged for 20 min at 14,000 g.
Flow Through was recovered.
A general note: TR-FRET usually uses a lanthanide donor and a delayed reading to cut background.

In assay [2] the target is T1, USP8 (Homo sapiens, UniProt P40818).
T1 sequence (P40818 1-1118): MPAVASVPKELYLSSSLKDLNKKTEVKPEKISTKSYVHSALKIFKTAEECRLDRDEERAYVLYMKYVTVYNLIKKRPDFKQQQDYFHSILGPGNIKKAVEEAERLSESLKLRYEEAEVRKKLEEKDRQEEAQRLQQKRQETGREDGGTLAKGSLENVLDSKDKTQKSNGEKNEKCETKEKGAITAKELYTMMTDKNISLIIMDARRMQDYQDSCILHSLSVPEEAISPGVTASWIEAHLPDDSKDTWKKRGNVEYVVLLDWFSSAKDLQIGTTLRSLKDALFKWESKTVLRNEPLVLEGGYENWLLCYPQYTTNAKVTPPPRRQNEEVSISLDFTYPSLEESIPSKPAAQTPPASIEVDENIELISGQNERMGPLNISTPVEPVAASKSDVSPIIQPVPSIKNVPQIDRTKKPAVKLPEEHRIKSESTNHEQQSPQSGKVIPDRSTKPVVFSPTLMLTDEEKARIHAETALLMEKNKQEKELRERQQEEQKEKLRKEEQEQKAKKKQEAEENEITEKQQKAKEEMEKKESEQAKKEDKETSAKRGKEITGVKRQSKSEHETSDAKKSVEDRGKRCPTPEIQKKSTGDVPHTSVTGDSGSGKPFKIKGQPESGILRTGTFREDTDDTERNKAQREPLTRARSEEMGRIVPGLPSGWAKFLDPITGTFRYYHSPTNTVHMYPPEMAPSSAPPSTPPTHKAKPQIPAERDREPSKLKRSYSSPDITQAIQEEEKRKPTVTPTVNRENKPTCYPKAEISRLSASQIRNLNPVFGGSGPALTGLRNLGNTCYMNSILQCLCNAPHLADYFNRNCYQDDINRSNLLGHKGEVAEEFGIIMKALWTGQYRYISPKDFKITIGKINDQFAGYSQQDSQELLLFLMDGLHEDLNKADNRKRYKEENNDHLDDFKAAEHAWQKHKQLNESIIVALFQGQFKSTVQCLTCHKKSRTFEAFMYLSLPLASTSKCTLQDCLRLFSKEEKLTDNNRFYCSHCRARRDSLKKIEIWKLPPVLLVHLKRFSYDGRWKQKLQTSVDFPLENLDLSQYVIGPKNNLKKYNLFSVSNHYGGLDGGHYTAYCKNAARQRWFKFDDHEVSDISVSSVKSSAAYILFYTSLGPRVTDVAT
The assay is described as follows: GST-Ub52-Flag HTRF deubiquitinating enzyme assay, USP8.
Description: The cDNA encoding USP8 was obtained by PCR amplification from placenta mRNA. USP8 cDNA was subcloned by PCR into a baculovirus expression vector (pFastBac-HT; Invitrogen). A cDNA encoding a mutated USP8 was generated by mutagenic PCR. […] The sequences were ascertained by sequencing of the entire open reading frame. Bacmids encoding USP8 were generated following DH10bac transposition. The corresponding bacmids were transfected into insect cells (Sf9). Viruses were recovered from culture supernatant and amplified twice. Insect cells (Sf9 or High Five; Invitrogen) were infected for 72 hours. […] Proteins were affinity purified on metal affinity resins (Talon Metal affinity resin; BD Biosciences). Bound materials were extensively washed in wash buffer (50 mM Sodium Phosphate pH 7.0; 300 mM NaCl; 10 mM imidazole; 0.5% Triton X-100; 10% glycerol) and eluted from the resin in 250 mM imidazole-containing wash buffer. Proteins were dialyzed in dialysis buffer (Tris HCl pH 7.6 20 mM; NaCl 200 mM; DTT 1 mM; EDTA 1 mM; 10% Glycerol).
A cDNA encoding the fusion protein between ubiquitin and the ribosomal protein L40 (ub52 or uba52 or ubiquitin-L40) was amplified from human RNA using a proprietary human placenta library. The cDNA was subcloned into a bacterial expression vector (pGEX-2T, GE Healthcare), including an additional flag tag at the carboxyl end of the encoded protein.
For production and purification of recombinant proteins, the plasmid pGEX-2T-Ub52-flag was transformed into E. coli BL21 (Stratagene), grown in LB medium supplemented with 100 mg/ml ampicillin (LB ampi) at 37° C. overnight and then diluted 1/100 in LB ampi. The cells were incubated at 37° C. until an A600=0.6-0.8 was reached. After induction with 0.1 mM isopropyl-β-D-thiogalactopyranoside (IPTG), the culture was incubated at 30° C. for 180 min.
Cells were harvested by centrifugation for 15 min at 7000×g at 4° C. Bacterial pellets were lysed in NETN (Tris HCl pH 8.0; EDTA 1 mM; NP40 0.5%; protease inhibitor cocktail, PMSF 1 mM) and briefly sonicated. Insoluble material was removed by centrifugation 30 min at 14000×g. […] Briefly, soluble fraction was incubated on Glutathione beads pre-equilibrated in NETN buffer+0.5% Milk for 120 min at 4° C. Flow Through was recovered. Beads were extensively washed: the last wash was performed in Tris HCl pH 7.6 20 mM; NaCl 100 mM; MgCl2 12 mM. Elutions were performed using 20 mM Reduced Glutathione in 50 mM Tris HCl pH 8.0, NaCl 120 mM. […] Elutions were dialysed over night at 4° C. in Tris HCl pH 7.6 20 mM; NaCl 50 mM; DTT 0.5 mM.
The use of GST-Ub52-Flag is based on the time-resolved measurement of fluorescence emitted by transfer in homogenous medium.
The assay is carried out on multiwell assay plates. The plates are analyzed on a PHERAstar fluorimeter (BMG) after an overnight incubation at 4° C.
The enzyme reaction is carried out by mixing GST-Ub52-flag solution with 5 μl of USP7 solution (200 pM final) or 5 μl of USP8 (400 pM final). This mixture is incubated for one hour at room temperature on a multiwell assay plate. […] The plate is read after an overnight incubation at 4° C. on a PHERAstar fluorimeter (BMG).
The decrease in the signal correlates with the increase in enzyme activity i.e. the cleavage of GST-Ub52-Flag substrate.
Data (mean values+/−standard deviation) were analyzed as % of control (no compound) and plotted as percentage versus the Log of the compound concentration using GraphPad (Prism).

In general, IC50 refers to the concentration needed to halve the response being measured. Lower therefore signals greater potency.

Chain of USP7 (Q93009 whole entry): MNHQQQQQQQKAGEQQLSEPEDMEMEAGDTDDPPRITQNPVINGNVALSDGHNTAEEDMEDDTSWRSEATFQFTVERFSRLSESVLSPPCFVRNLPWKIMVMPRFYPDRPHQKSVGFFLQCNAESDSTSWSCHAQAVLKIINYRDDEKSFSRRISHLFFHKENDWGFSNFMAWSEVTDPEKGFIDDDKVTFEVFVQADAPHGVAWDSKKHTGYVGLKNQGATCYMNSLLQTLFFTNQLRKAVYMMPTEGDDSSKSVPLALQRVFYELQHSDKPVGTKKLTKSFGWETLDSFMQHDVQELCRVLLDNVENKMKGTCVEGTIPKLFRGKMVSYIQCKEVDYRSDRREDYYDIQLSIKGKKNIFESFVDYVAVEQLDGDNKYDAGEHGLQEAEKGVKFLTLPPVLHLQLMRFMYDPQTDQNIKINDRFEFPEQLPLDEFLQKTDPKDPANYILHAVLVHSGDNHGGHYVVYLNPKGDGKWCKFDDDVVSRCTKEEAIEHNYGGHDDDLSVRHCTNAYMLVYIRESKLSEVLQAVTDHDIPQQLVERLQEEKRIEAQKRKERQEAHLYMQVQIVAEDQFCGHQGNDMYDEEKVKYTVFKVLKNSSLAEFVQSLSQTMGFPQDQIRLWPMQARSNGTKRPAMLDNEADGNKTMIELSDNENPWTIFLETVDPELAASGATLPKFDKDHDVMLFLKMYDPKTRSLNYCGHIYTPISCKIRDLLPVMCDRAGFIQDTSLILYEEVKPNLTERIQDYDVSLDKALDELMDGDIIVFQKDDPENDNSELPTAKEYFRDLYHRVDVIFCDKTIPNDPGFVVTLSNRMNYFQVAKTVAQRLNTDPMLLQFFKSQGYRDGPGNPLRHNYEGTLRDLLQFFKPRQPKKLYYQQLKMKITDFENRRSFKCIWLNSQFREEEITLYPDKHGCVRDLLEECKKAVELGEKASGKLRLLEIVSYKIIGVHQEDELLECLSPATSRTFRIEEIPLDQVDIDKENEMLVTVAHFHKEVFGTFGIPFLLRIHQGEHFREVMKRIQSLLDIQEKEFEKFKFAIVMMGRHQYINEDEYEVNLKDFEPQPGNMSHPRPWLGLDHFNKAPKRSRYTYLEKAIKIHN

On to `O=C(COc1cccc(F)c1)N1CCC(O)(Cn2cnc3ccccc3c2=O)CC1` [Example 8, 3-({1-[2-(3-fluorophenoxy)acetyl]-4-hydroxypiperidin-4-yl}methyl)-3,4-dihydroquinazolin-4-one], for which the figures for the IC50 in assay [1] and in assay [2] were 224 µM and more than 200 µM, respectively.
